The experiment deals with Bifunctional 3'-5' exonuclease/ATP-dependent helicase WRN (Homo sapiens, UniProt Q14191). Put plainly: Inhibition of WRN helicase (500 to 942 residues)(unknown origin) using fluor/quencher-labeled forked double-stranded DNA substrate assessed as decrease in helicase unwinding activity preincubated for 1 hr followed by substrate addition measured after 1 hr in presence of ATP by fluorescence based assay.

SMILES strings stand for the structures.

Broadly, the IC50 is the concentration at which inhibition is half-maximal.

Bifunctional 3'-5' exonuclease/ATP-dependent helicase WRN, sequence (Q14191 whole entry, the tested form may be a part): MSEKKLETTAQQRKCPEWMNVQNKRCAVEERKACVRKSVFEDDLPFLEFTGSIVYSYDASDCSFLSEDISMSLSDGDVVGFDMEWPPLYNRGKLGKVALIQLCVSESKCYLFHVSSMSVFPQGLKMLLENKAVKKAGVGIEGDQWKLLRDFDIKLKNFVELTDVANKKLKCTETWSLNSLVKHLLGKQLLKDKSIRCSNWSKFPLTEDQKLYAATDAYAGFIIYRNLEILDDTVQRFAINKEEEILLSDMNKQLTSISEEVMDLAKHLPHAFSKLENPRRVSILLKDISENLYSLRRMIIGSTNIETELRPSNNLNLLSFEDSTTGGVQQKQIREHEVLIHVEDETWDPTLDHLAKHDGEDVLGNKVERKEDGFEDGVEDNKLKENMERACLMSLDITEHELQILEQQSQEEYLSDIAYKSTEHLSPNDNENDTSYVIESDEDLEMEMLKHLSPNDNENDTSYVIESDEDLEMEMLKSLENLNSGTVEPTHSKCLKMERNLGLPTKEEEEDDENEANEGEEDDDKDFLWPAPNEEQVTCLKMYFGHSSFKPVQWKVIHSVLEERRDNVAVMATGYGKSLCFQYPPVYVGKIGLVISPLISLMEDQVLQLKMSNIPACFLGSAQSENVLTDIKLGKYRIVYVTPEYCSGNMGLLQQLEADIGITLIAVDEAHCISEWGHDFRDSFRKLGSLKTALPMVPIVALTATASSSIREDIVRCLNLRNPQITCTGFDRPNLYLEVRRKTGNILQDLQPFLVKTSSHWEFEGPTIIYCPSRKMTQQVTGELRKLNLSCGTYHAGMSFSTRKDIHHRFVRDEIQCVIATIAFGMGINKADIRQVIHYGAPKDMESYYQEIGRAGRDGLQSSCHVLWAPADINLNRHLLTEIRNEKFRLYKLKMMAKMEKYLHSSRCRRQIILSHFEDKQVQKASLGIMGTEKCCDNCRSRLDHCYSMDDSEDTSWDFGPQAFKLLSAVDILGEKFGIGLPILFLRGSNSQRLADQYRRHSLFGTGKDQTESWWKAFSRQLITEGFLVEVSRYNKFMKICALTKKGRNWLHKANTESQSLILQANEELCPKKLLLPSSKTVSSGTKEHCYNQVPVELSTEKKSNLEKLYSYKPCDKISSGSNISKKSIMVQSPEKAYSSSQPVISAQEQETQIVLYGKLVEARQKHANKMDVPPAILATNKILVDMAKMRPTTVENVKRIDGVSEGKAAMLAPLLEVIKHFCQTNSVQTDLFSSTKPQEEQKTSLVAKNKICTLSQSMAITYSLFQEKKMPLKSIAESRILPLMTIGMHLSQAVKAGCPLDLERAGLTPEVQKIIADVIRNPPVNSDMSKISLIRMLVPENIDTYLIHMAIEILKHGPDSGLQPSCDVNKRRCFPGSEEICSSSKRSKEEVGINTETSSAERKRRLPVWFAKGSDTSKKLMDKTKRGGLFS

For the molecule `CC1CC2(CCN(C(=O)c3ncccc3O)CC2)c2c1n(CC(=O)Nc1ccc(C(F)(F)F)cc1)c1nc(C3=CCOCC3)nn1c2=O` (configuration not stated), the IC50 came out at 1.9 nM.
Regarding `CC(=O)N1CC=C(c2nc3n(CC(=O)Nc4ccc(C(F)(F)F)cc4Cl)c4c(c(=O)n3n2)C2(CCN(C(=O)c3ncccc3O)CC2)CC4C)CC1` (configuration not stated), the IC50 stood at 2 nM.

Source of the values: ChEMBL document CHEMBL6178006, “Novel Spirocyclic WRN Helicase Inhibitors for Treating Cancer” (ACS Med Chem Lett, 2025).
